These results are taken from US9695192B2, “Fused heterocyclic compounds as ion channel modulators” (GILEAD SCIENCES, INC., priority 2011, dated 2017).

In the assay the target is wild-type human cardiac sodium channel, hNav1.5 (Homo sapiens, UniProt Q14524). Kind of assay: Late INa screening assay (QPatch whole cell patch clamp, tefluthrin-enhanced late sodium current). Type of assay: cell-based. The settings on record: HEK293 hNav1.5, late INa activated with 10 μM Tefluthrin. On the procedure: The late sodium current (Late INa) and peak sodium current (Peak INa) assays are performed on an automated electrophysiology platform, QPatch 16X (Sophion Bioscience, Copenhagen, Denmark), which uses the whole cell patch clamp technique to measure currents through the cell membrane of up to 16 cells at a time. The assay uses an HEK293 (human embryonic kidney) cell line heterologously expressing the wild-type human cardiac sodium channel, hNav1.5, purchased from Millipore (Billerica, Mass.). No beta subunits were coexpressed with the Na channel alpha subunit. Cells are maintained with standard tissue culture procedures and stable channel expression is maintained with 400 μg/mL Geneticin in the culture medium. Cells isolated for use on QPatch are incubated for 5 minutes in Detachin 1X (Genlantis, San Diego, USA) at 37° C. to ensure that 80-90% of the cells are single and not part of a cell cluster. Experiments are carried out at 23-25° C.
Chain of wild-type human cardiac sodium channel, hNav1.5 (Q14524 whole entry): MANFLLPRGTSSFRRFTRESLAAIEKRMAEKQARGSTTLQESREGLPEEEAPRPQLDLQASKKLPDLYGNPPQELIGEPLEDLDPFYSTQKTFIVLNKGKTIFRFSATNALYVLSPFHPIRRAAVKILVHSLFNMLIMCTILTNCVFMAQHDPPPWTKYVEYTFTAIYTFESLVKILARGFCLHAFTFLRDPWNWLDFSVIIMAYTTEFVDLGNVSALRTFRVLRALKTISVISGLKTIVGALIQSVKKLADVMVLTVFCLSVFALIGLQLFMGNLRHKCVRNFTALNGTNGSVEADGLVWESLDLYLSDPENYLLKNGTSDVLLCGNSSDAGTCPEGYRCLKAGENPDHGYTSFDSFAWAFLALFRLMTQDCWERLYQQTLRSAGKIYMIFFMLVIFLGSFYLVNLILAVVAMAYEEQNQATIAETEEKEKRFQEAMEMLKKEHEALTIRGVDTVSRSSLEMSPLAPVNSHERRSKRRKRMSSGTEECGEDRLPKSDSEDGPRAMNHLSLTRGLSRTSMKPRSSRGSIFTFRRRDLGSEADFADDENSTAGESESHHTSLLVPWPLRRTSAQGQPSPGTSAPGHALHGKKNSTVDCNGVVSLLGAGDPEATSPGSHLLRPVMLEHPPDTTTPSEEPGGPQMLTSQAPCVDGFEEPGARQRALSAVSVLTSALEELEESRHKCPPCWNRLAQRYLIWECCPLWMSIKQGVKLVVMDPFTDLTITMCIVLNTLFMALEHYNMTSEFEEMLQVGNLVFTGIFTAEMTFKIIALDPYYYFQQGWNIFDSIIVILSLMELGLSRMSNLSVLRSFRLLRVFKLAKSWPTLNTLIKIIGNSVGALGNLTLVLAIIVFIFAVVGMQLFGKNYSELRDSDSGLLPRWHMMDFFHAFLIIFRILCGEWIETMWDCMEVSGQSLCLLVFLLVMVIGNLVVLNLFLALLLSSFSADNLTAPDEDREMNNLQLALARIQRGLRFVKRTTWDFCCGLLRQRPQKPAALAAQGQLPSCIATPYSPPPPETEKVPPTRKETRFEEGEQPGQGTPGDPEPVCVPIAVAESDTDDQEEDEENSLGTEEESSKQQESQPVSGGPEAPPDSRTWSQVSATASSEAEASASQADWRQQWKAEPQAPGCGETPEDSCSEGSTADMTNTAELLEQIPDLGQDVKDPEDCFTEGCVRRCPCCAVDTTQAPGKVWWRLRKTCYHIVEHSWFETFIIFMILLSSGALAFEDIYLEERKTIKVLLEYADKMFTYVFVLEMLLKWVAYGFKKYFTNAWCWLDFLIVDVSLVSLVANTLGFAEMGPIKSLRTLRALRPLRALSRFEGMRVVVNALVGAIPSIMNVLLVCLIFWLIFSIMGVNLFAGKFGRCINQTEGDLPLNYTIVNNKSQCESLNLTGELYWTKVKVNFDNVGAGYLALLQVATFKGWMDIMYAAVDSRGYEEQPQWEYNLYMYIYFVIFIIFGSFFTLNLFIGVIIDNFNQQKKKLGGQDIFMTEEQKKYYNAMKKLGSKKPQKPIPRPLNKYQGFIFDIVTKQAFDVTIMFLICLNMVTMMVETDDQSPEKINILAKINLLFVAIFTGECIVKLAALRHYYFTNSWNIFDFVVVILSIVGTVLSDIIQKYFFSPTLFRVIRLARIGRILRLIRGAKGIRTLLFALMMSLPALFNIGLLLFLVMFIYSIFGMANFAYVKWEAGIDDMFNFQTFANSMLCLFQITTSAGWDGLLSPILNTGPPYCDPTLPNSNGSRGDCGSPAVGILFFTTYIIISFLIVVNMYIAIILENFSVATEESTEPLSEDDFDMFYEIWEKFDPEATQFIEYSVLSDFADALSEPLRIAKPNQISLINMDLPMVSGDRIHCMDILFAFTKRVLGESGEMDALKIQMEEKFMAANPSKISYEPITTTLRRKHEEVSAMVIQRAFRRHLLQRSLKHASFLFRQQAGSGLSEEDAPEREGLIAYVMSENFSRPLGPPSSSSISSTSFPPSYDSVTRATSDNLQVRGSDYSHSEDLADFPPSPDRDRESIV
For both the Late INa and Peak INa assays, series resistance compensation is set to 100% and series resistance and whole-cell compensation are performed automatically. Currents are digitized at 25 kHz and low-pass filtered at 12 kHz and 10 kHz for the late and peak INa assays, respectively. Currents through open sodium channels are automatically recorded and stored in the Sophion Bioscience Oracle database (Sophion Bioscience, Copenhagen, Denmark). Analysis is performed using QPatch Assay and database software and data are compiled in Excel.
Compound stocks are routinely made by the Gilead Sample Bank in plastic vials to 10 mM in dimethyl sulfoxide (DMSO). In some cases, when compounds are not soluble in DMSO, they are made in 100% ethanol. Stocks are sonicated as necessary. The extracellular solution for screening Late INa is composed of: 140 mM NaCl, 4 mM KCl, 1.8 mM CaCl2, 0.75 mM MgCl2 and 5 mM HEPES with pH adjusted to 7.4 using NaOH. The intracellular solution used to perfuse the inside of the cells for both the Late INa and Peak INa assays contains: 120 mM CsF, 20 mM CsCl, 5 mM EGTA, 5 mM HEPES and pH adjusted to 7.4 with CsOH. Compounds are diluted in extracellular solution to 1 μM in glass vials and then transferred to glass well plates before robotic addition to the cells. A 0 mM Na extracellular solution (0 Na-ECF) is used at the end of each experiment for the Late INa and Peak INa assays to measure baseline current contains: 140 mM N-methyl-D-glucamine; 4 mM KCl; 1.8 mM CaCl2; 0.75 mM MgCl2; 5 mM HEPES and pH was adjusted to 7.4 with HCl.
For the hNav1.5 Late INa assay, sodium channels are activated every 10 seconds (0.1 Hz) by depolarizing the cell membrane to −20 mV for 250 milliseconds (ms) from a holding potential of −120 mV. In response to a −20 mV voltage step, typical hNav1.5 sodium currents activate rapidly to a peak negative current and then inactivate nearly completely within 3-4 ms.
Compounds were tested to determine their activity in blocking the late sodium current. Late INa was generated by adding 10 μM Tefluthrin (pyrethroid) to the extracellular solution while recording Na currents. To confirm the block of late INa observed using the automated screening method, a second late INa enhancer (ATX-II) and the manual patch clamp method were used. ATX-II and tefluthrin occupy distinct, non-overlapping binding sites and modify Na^+ channel function differently to increase late INa. Compounds tested have been found generally to inhibit the enhanced late INa caused by either late INa enhancer. For the purposes of the screening, late INa is defined as the mean current between 225 ms and 250 ms after stepping to −20 mV to activate Na channels. After establishing the whole cell recording configuration, late INa activator is added to each well 4 times over a 16-17 minute period so that the late component of the Na current reaches a stable value. Compounds were then added (typically at 1 μM), in the presence of the late INa activator, with 3 additions over the course of 7 or 8 minutes. […]

As a reminder, the inhibition is the change of the read-out against control, counted positive when it falls. For `NC1CN(C2=NCCOc3ccc(-c4ccc(C(F)(F)F)cc4)cc32)C1` [II-18, 1-(7-(4-(trifluoromethyl)phenyl)-2,3-dihydrobenzo[f][1,4]oxazepin-5-yl)azetidin-3-amine], the inhibition at 1 µM amounted to 9%.
In the case of `FC(F)(F)c1ccc(-c2ccc3c(c2)C(Nc2ccccn2)=NCCO3)cc1` [II-19, N-(pyridin-2-yl)-7-(4-(trifluoromethyl)phenyl)-2,3-dihydrobenzo[f][1,4]oxazepin-5-amine] it was 43%; in that of `FC1(F)CCN(C2=NCCOc3ccc(-c4ccc(C(F)(F)F)cc4)cc32)CC1` [II-21, 5-(4,4-difluoropiperidin-1-yl)-7-(4-(trifluoromethyl)phenyl)-2,3-dihydrobenzo[f][1,4]oxazepine], 13%.
The value for `OC1CCN(C2=NCCOc3ccc(-c4ccc(C(F)(F)F)cc4)cc32)C1` (stereo not shown) [II-23, 1-(7-(4-(trifluoromethyl)phenyl)-2,3-dihydrobenzo[f][1,4]oxazepin-5-yl)pyrrolidin-3-ol] was 9%; that for `FC(F)(F)c1ccc(-c2ccc3c(c2)C(NCCOc2ccccc2Cl)=NCCO3)cc1` [II-24, N-(2-(2-chlorophenoxy)ethyl)-7-(4-(trifluoromethyl)phenyl)-2,3-dihydrobenzo[f][1,4]oxazepin-5-amine] was 26%.
For the compound `FC(F)(F)c1ccc(-c2ccc3c(c2)C(NCc2cccc(C(F)(F)F)n2)=NCCO3)cc1` [II-25, 7-(4-(trifluoromethyl)phenyl)-N-((6-(trifluoromethyl)pyridin-2-yl)methyl)-2,3-dihydrobenzo[f][1,4]oxazepin-5-amine], the inhibition at 1 µM was 20%.
As for `FC(F)(F)c1ccc(-c2ccc3c(c2)C(Nc2nnn[nH]2)=NCCO3)cc1` [II-26, N-(1H-tetrazol-5-yl)-7-(4-(trifluoromethyl)phenyl)-2,3-dihydrobenzo[f][1,4]oxazepin-5-amine], the inhibition at 1 µM came to 14%.
Turning to `FC(F)(F)c1ccc(-c2ccc3c(c2)C(Nc2cccc(C(F)(F)F)n2)=NCCO3)cc1` [II-27, 7-(4-(trifluoromethyl)phenyl)-N-(6-(trifluoromethyl)pyridin-2-yl)-2,3-dihydrobenzo[f][1,4]oxazepin-5-amine], the inhibition at 1 µM was 1%.
The value for `FC(F)(F)CNC1=NCCOc2ccc(-c3ccc(C(F)(F)F)cc3)cc21` [II-29, N-(2,2,2-trifluoroethyl)-7-(4-(trifluoromethyl)phenyl)-2,3-dihydrobenzo[f][1,4]oxazepin-5-amine] was 7%.
Consider `O=C1CCCN1C1=NCCOc2ccc(-c3ccc(C(F)(F)F)cc3)cc21` [II-30, 1-(7-(4-(trifluoromethyl)phenyl)-2,3-dihydrobenzo[f][1,4]oxazepin-5-yl)pyrrolidin-2-one], for which the inhibition at 1 µM was 10%.
The value for `FC(F)(F)c1ccc(-c2ccc3c(c2)C(N2CCN(C4CC4)CC2)=NCCO3)cc1` [II-31, 5-(4-cyclopropylpiperazin-1-yl)-7-(4-(trifluoromethyl)phenyl)-2,3-dihydrobenzo[f][1,4]oxazepine] was 24%; that for `FC(F)(F)c1ccc(-c2ccc3c(c2)C(Nc2ccccc2)=NCCO3)cc1` [II-32, N-phenyl-7-(4-(trifluoromethyl)phenyl)-2,3-dihydrobenzo[f][1,4]oxazepin-5-amine] was 26%.
In the case of `Cn1c(CNC2=NCCOc3ccc(-c4ccc(C(F)(F)F)cc4)cc32)nc2ccccc21` [II-33, N-((1-methyl-1H-benzo[d]imidazol-2-yl)methyl)-7-(4-(trifluoromethyl)phenyl)-2,3-dihydrobenzo[f][1,4]oxazepin-5-amine], the inhibition at 1 µM worked out at 34%.
In the case of `FC(F)(F)c1ccc(-c2ccc3c(c2)C(NC2CCN(Cc4ncccn4)C2)=NCCO3)cc1` (stereo not shown) [II-34, N-(1-(pyrimidin-2-ylmethyl)pyrrolidin-3-yl)-7-(4-(trifluoromethyl)phenyl)-2,3-dihydrobenzo[f][1,4]oxazepin-5-amine] it was 3%; in that of `O=C(c1ncccn1)N1CCC(NC2=NCCOc3ccc(-c4ccc(C(F)(F)F)cc4)cc32)C1` (stereo not shown) [II-35, pyrimidin-2-yl(3-(7-(4-(trifluoromethyl)phenyl)-2,3-dihydrobenzo[f][1,4]oxazepin-5-ylamino)pyrrolidin-1-yl)methanone], 4%; in that of `FC(F)(F)c1ccc(-c2ccc3c(c2)C(N2CCC(N4CCCC4)C2)=NCCO3)cc1` (stereo not shown) [II-36, 5-(1,3′-bipyrrolidin-1′-yl)-7-(4-(trifluoromethyl)phenyl)-2,3-dihydrobenzo[f][1,4]oxazepine], 7%.
Turning to `FC(F)(F)c1ccc(-c2ccc3c(c2)C(N2CCC(NCc4ncccn4)C2)=NCCO3)cc1` (stereo not shown) [II-37, N-(pyrimidin-2-ylmethyl)-1-(7-(4-(trifluoromethyl)phenyl)-2,3-dihydrobenzo[f][1,4]oxazepin-5-yl)pyrrolidin-3-amine], the inhibition at 1 µM was 20%.
For `CN(C(=O)OC(C)(C)C)[C@@H]1CCN(C2=NCCOc3ccc(-c4ccc(C(F)(F)F)cc4)cc32)C1` [II-38, (R)-tert-butyl methyl(1-(7-(4-(trifluoromethyl)phenyl)-2,3-dihydrobenzo[f][1,4]oxazepin-5-yl)pyrrolidin-3-yl)carbamate], the inhibition at 1 µM was found to be 18%.
The value for `CN[C@@H]1CCN(C2=NCCOc3ccc(-c4ccc(C(F)(F)F)cc4)cc32)C1` [II-39, (R)—N-methyl-1-(7-(4-(trifluoromethyl)phenyl)-2,3-dihydrobenzo[f][1,4]oxazepin-5-yl)pyrrolidin-3-amine] was 26%; that for `CN(C(=O)OC(C)(C)C)[C@H]1CCN(C2=NCCOc3ccc(-c4ccc(C(F)(F)F)cc4)cc32)C1` [II-40, (S)-tert-butyl methyl(1-(7-(4-(trifluoromethyl)phenyl)-2,3-dihydrobenzo[f][1,4]oxazepin-5-yl)pyrrolidin-3-yl)carbamate] was 18%.
The value for `N[C@@H]1CCN(C2=NCCOc3ccc(-c4ccc(C(F)(F)F)cc4)cc32)C1` [II-41, (R)-1-(7-(4-(trifluoromethyl)phenyl)-2,3-dihydrobenzo[f][1,4]oxazepin-5-yl)pyrrolidin-3-amine] was 6%; that for `O=C1CCCN1C1CCN(C2=NCCOc3ccc(-c4ccc(C(F)(F)F)cc4)cc32)CC1` [II-42, 1-(1-(7-(4-(trifluoromethyl)phenyl)-2,3-dihydrobenzo[f][1,4]oxazepin-5-yl)piperidin-4-yl)pyrrolidin-2-one] was 9%; that for `CN[C@H]1CCN(C2=NCCOc3ccc(-c4ccc(C(F)(F)F)cc4)cc32)C1` [II-44, (S)—N-methyl-1-(7-(4-(trifluoromethyl)phenyl)-2,3-dihydrobenzo[f][1,4]oxazepin-5-yl)pyrrolidin-3-amine] was 9%.
In the case of `O=C(N[C@H]1CCN(C2=NCCOc3ccc(-c4ccc(C(F)(F)F)cc4)cc32)C1)c1ncccn1` [II-45, (S)—N-(1-(7-(4-(trifluoromethyl)phenyl)-2,3-dihydrobenzo[f][1,4]oxazepin-5-yl)pyrrolidin-3-yl)pyrimidine-2-carboxamide] it was 6%; in that of `O=C(N[C@@H]1CCN(C2=NCCOc3ccc(-c4ccc(C(F)(F)F)cc4)cc32)C1)c1ncccn1` [II-46, (R)—N-(1-(7-(4-(trifluoromethyl)phenyl)-2,3-dihydrobenzo[f][1,4]oxazepin-5-yl)pyrrolidin-3-yl)pyrimidine-2-carboxamide], 4%.
